BigSolDB 2.1

O=C1OC(=O)[C@H]2[C@@H]1[C@@H]1C=C[C@H]2O1
solubility (mole fraction)
Settings	278.15 K	283.15 K	288.15 K	293.15 K	298.15 K	303.15 K	308.15 K	313.15 K	318.15 K	323.15 K
in 1,4-dioxane	–	–	0.0238	0.0288	0.0342	0.0414	0.052	0.0647	0.0857	0.134
in DMF	0.106	0.117	0.126	0.138	0.15	0.164	0.181	0.192	0.218	0.238
in NMP	0.133	0.144	0.155	0.17	0.184	0.199	0.211	0.235	0.256	0.277
in acetone	0.038	0.0434	0.0483	0.0556	0.0629	0.0717	0.0818	0.0932	0.107	0.125
in acetonitrile	0.0308	0.0353	0.0393	0.0453	0.0508	0.0576	0.0667	0.078	0.0887	0.109
in ethyl acetate	0.0157	0.0179	0.0207	0.0234	0.0275	0.031	0.0363	0.0414	0.0482	0.0569
in isobutyl acetate	0.00929	0.011	0.0122	0.0143	0.0165	0.0189	–	–	–	–
